Experimental data reported in patent US20220290200A1, “GENETICALLY MODIFIED HOST CELLS PRODUCING GLYCOSYLATED CANNABINOIDS” (OCTARINE BIO IVS, priority 2019, published 2022).
Where two headings read alike, the source gives them in different places.

Test: Caco-2 bi-directional permeability assay
Type: in vitro ADME, human
Settings: human
Experimental: Intestinal permeability of cannabinoids and glycosylated cannabinoids was determined by measuring bi-directional transport across Caco-2 cell membranes. Caco-2 cells are used as an in vitro model of the human intestinal epithelium and permit assessment of the intestinal permeability of potential drugs. The test compound is added to either the apical or basolateral side of a confluent monolayer of Caco-2 cells and permeability is measured by monitoring the appearance of the test compound on the opposite side of the monolayer using LC-MS/QTOF. When performing a bi-directional assay, the efflux ratio (ER) is calculated from the ratio of B−A and A−B permeabilities. Caco-2 cells obtained from the ATCC are used between passage numbers 40-60. Cells are seeded onto Millipore Multiscreen Transwell plates at 1×10^5 cells/cm2. The cells are cultured in DMEM and media is changed every two or three days. On day 20 the permeability study is performed. Cell culture and assay incubations are carried out at 37° C. in an atmosphere of 5% CO2 with a relative humidity of 95%. On the day of the assay, the monolayers are prepared by rinsing both apical and basolateral surfaces twice with Hanks Balanced Salt Solution (HBSS) at the desired pH warmed to 37° C. Cells are then incubated with HBSS at the desired pH in both apical and basolateral compartments for 40 min to stabilize physiological parameters. 10 mM solutions of cannabinoids and cannabinoid glycosides are prepared in DMSO then diluted with assay buffer to give a final test compound concentration of 10 μM (final DMSO concentration of 1% v/v). The fluorescent integrity marker lucifer yellow is also included in the solution.
Analytical standards are prepared from test compound DMSO dilutions and transferred to buffer, maintaining a 1% v/v DMSO concentration. For assessment of A−B permeability, HBSS is removed from the apical compartment and replaced with test compound solution. The apical compartment insert is then placed into a companion plate containing fresh buffer (containing 1% v/v DMSO). For assessment of B−A permeability, HBSS is removed from the companion plate and replaced with test compound solution. Fresh buffer (containing 1% v/v DMSO) is added to the apical compartment insert, which is then placed into the companion plate. At 120 min the apical compartment inserts and the companion plates are separated and apical and basolateral samples diluted for analysis. Test compound permeability is assessed in duplicate. Compounds of known permeability characteristics are run as controls on each assay plate. Test and control compounds are quantified by LC-MS/QTOF as described above. The starting concentration (C0) is determined from the solution and the experimental recovery calculated from C0 and both apical and basolateral compartment concentrations. The integrity of the monolayer throughout the experiment is checked by monitoring lucifer yellow permeation using fluorometric analysis. The permeability coefficient (Papp) for each compound is calculated from the following equation: Papp=(dQ/dt)/(C0×A) Where dQ/dt is the rate of permeation of the drug across the cells, C0 is the donor compartment concentration at time zero and A is the area of the cell monolayer. C0 is obtained from analysis of the dosing solution. The efflux ratio (ER) is calculated from mean Papp values from A−B and B−A data. This is derived from: ER=Papp(B−A)/Papp(A−B). The % recovery is calculated from the following equation; % recovery=(Total compound in donor and receiver compartment at end of experiment)/(initial compound present)×100.
CBD glycosides were produced using glycosyl transferases and purified as described above. […] Low recovery of compound in a Caco-2 permeability assay can indicate problems with poor solubility, binding of the compound to the plate, metabolism by the Caco-2 cells or accumulation of the compound in the cell monolayer.

C=C(C)[C@@H]1CCC(C)=C[C@H]1c1c(O)cc(CCCCC)cc1O [CBD, cannabidiol, reference compound]
recovery at 120 min, 10 μM (Caco-2, apical to basolateral, 120 min, read-out: Mean recovery (%), Direction A→B): 16.4% | recovery at 120 min, 10 μM (Caco-2, basolateral to apical, 120 min, read-out: Mean recovery (%), Direction B→A): 48.8% | Papp A→B at 120 min, 10 μM (Caco-2, apical to basolateral, 120 min, mean and standard deviation of duplicates, read-out: Mean Papp, Direction A→B): 0.61 ± 0.03 ×10⁻⁶ cm/s | Papp B→A at 120 min, 10 μM (Caco-2, basolateral to apical, 120 min, mean and standard deviation of duplicates, read-out: Mean Papp, Direction B→A): 1.45 ± 0.64 ×10⁻⁶ cm/s | efflux ratio at 120 min, 10 μM (Caco-2, ratio of B−A and A−B permeabilities): 2.37
